Here are results for 20 substances from the OligoGym collection.

HELM strings list units from the 5' end as sugar, base in round brackets, then linkage (d deoxyribose, r ribose, m 2'-O-methyl, p phosphodiester). Strings are as the collection lists them, not checked against the first reports. ss, as = sense and antisense strand; [fl2r] = 2'-fluoro
Further: test system not given here.

The conditions of this data set: siRNA.
“RNA1{r(C)p.m(C)p.r(C)p.m(C)p.r(A)p.m(G)p.r(G)p.m(U)p.r(A)p.m(A)p.r(C)p.m(G)p.r(A)p.r(U)p.r(U)p.m(U)p.r(U)p.r(C)p.r(U)p.r(T)p.r(T)}|RNA2{r(A)p.r(G)p.r(A)p.r(A)p.r(A)p.r(A)p.r(U)p.m(C)p.r(G)p.r(U)p.r(U)p.r(A)p.m(C)p.m(C)p.r(U)p.r(G)p.r(G)p.r(G)p.r(G)p.r(T)p.r(T)}$$$RNA1{StrandType:ss}|RNA2{StrandType:as}$”: the target mRNA knockdown turned out to be 69%.
As for “RNA1{r(C)p.m(U)p.m(A)p.r(C)p.r(C)p.r(U)p.r(U)p.r(C)p.r(U)p.r(C)p.r(C)p.r(U)p.r(C)p.r(U)p.r(U)p.r(C)p.r(U)p.r(C)p.r(C)p.r(T)p.r(T)}|RNA2{r(G)p.r(G)p.r(A)p.r(G)p.r(A)p.r(A)p.r(G)p.r(A)p.r(G)p.r(G)p.r(A)p.r(G)p.r(A)p.r(A)p.r(G)p.r(G)p.m(U)p.m(A)p.r(G)p.r(T)p.r(T)}$$$RNA1{StrandType:ss}|RNA2{StrandType:as}$”, the figure is 68%; as for “RNA1{r(C)p.m(U)p.r(A)p.r(C)p.r(C)p.r(U)p.r(U)p.r(C)p.r(U)p.r(C)p.r(C)p.r(U)p.r(C)p.r(U)p.r(U)p.r(C)p.r(U)p.r(C)p.r(C)p.r(T)p.r(T)}|RNA2{r(G)p.r(G)p.r(A)p.r(G)p.r(A)p.r(A)p.r(G)p.r(A)p.r(G)p.r(G)p.r(A)p.r(G)p.r(A)p.r(A)p.r(G)p.r(G)p.m(U)p.r(A)p.r(G)p.r(T)p.r(T)}$$$RNA1{StrandType:ss}|RNA2{StrandType:as}$”, 69%.
The substance “RNA1{r(C)p.m(U)p.r(A)p.r(G)p.r(U)p.r(C)p.r(G)p.r(A)p.m(A)p.r(A)p.r(G)p.r(A)p.m(A)p.m(A)p.r(A)p.r(C)p.r(G)p.r(G)p.r(G)p.r(T)p.r(T)}|RNA2{r(C)p.r(C)p.r(C)p.r(G)p.r(U)p.r(U)p.r(U)p.r(U)p.r(C)p.r(U)p.r(U)p.r(U)p.r(C)p.r(G)p.r(A)p.r(C)p.m(U)p.r(A)p.r(G)p.r(T)p.r(T)}$$$RNA1{StrandType:ss}|RNA2{StrandType:as}$” came in with a target mRNA knockdown of 55%.
As for “RNA1{r(C)p.m(U)p.r(A)p.r(G)p.r(U)p.r(C)p.r(G)p.r(A)p.r(A)p.r(A)p.r(G)p.r(A)p.r(A)p.r(A)p.r(A)p.r(C)p.r(G)p.r(G)p.r(G)p.r(T)p.r(T)}|RNA2{r(C)p.r(C)p.r(C)p.r(G)p.r(U)p.r(U)p.r(U)p.r(U)p.r(C)p.r(U)p.r(U)p.r(U)p.r(C)p.r(G)p.r(A)p.r(C)p.m(U)p.r(A)p.r(G)p.r(T)p.r(T)}$$$RNA1{StrandType:ss}|RNA2{StrandType:as}$”, the figure is 56%.
The result for “RNA1{r(C)p.m(U)p.r(G)p.r(A)p.r(C)p.r(C)p.r(G)p.r(G)p.r(A)p.r(A)p.r(G)p.r(C)p.r(G)p.r(C)p.r(U)p.m(U)p.r(A)p.r(A)p.r(A)p.r(T)p.r(T)}|RNA2{r(U)p.r(U)p.m(U)p.r(A)p.r(A)p.r(G)p.r(C)p.r(G)p.r(C)p.r(U)p.r(U)p.r(C)p.r(C)p.r(G)p.r(G)p.r(U)p.m(C)p.r(A)p.r(G)p.r(T)p.r(T)}$$$RNA1{StrandType:ss}|RNA2{StrandType:as}$” reads 85%; that for “RNA1{r(C)p.r(C)p.r(A)p.[fl2r](G)p.r(C)p.[fl2r](G)p.r(A)p.[fl2r](G)p.r(C)p.r(C)p.r(C)p.r(A)p.r(A)p.r(A)p.r(A)p.[fl2r](G)p.r(A)p.r(A)p.r(A)p.r(T)p.r(T)}|RNA2{[fl2r](U)p.r(U)p.[fl2r](U)p.r(C)p.[fl2r](U)p.r(U)p.[fl2r](U)p.r(U)p.[fl2r](G)p.r(G)p.[fl2r](G)p.r(C)p.[fl2r](U)p.r(C)p.[fl2r](G)p.r(C)p.[fl2r](U)p.r(G)p.[fl2r](G)p.r(T)p.r(T)}$$$RNA1{StrandType:ss}|RNA2{StrandType:as}$”, 35%; that for “RNA1{r(C)p.r(C)p.r(C)p.r(C)p.m(A)p.m(G)p.m(G)p.m(U)p.m(A)p.m(A)p.m(C)p.r(G)p.r(A)p.r(U)p.r(U)p.r(U)p.r(U)p.r(C)p.r(U)p.r(T)p.r(T)}|RNA2{r(A)p.r(G)p.r(A)p.r(A)p.r(A)p.r(A)p.r(U)p.r(C)p.r(G)p.r(U)p.r(U)p.r(A)p.r(C)p.r(C)p.r(U)p.r(G)p.r(G)p.r(G)p.r(G)p.r(T)p.r(T)}$$$RNA1{StrandType:ss}|RNA2{StrandType:as}$”, 79%.
The result for “RNA1{r(C)p.r(C)p.r(C)p.r(C)p.r(A)p.r(G)p.r(G)p.m(U)p.r(A)p.r(A)p.r(C)p.r(G)p.r(A)p.r(U)p.r(U)p.r(U)p.r(U)p.r(C)p.r(U)p.r(T)p.r(T)}|RNA2{r(A)p.r(G)p.r(A)p.r(A)p.r(A)p.r(A)p.r(U)p.r(C)p.r(G)p.r(U)p.m(U)p.r(A)p.r(C)p.r(C)p.r(U)p.r(G)p.r(G)p.r(G)p.r(G)p.r(T)p.r(T)}$$$RNA1{StrandType:ss}|RNA2{StrandType:as}$” reads 70%; that for “RNA1{r(C)p.r(C)p.r(C)p.r(U)p.r(C)p.r(C)p.r(C)p.r(C)p.[fl2r](U)p.r(G)p.r(U)p.r(C)p.r(C)p.r(C)p.r(C)p.r(G)p.[fl2r](C)p.r(U)p.r(U)p.r(T)p.r(T)}|RNA2{r(A)p.r(A)p.r(G)p.r(C)p.r(G)p.r(G)p.r(G)p.r(G)p.r(A)p.[fl2r](C)p.r(A)p.r(G)p.r(G)p.r(G)p.r(G)p.r(A)p.r(G)p.r(G)p.r(G)p.r(T)p.r(T)}$$$RNA1{StrandType:ss}|RNA2{StrandType:as}$”, 72%; that for “RNA1{r(C)p.r(C)p.r(C)p.r(U)p.r(C)p.r(C)p.r(C)p.r(C)p.[fl2r](U)p.r(G)p.r(U)p.r(C)p.r(C)p.r(C)p.r(C)p.r(G)p.r(C)p.r(U)p.r(U)p.r(T)p.r(T)}|RNA2{r(A)p.r(A)p.r(G)p.r(C)p.r(G)p.r(G)p.r(G)p.r(G)p.r(A)p.r(C)p.r(A)p.r(G)p.r(G)p.r(G)p.r(G)p.r(A)p.r(G)p.r(G)p.r(G)p.r(T)p.r(T)}$$$RNA1{StrandType:ss}|RNA2{StrandType:as}$”, 73%.
“RNA1{r(C)p.r(C)p.r(G)p.r(A)p.r(A)p.r(G)p.r(A)p.r(C)p.r(G)p.m(A)p.m(A)p.r(G)p.r(C)p.m(U)p.r(A)p.m(U)p.r(G)p.r(A)p.r(A)p.r(T)p.r(T)}|RNA2{r(U)p.r(U)p.m(C)p.r(A)p.m(U)p.r(A)p.r(G)p.r(C)p.r(U)p.r(U)p.r(C)p.r(G)p.r(U)p.r(C)p.r(U)p.r(U)p.r(C)p.r(G)p.r(G)p.r(T)p.r(T)}$$$RNA1{StrandType:ss}|RNA2{StrandType:as}$”: the target mRNA knockdown was 69%.
As to “RNA1{r(C)p.r(C)p.r(G)p.r(A)p.r(A)p.r(G)p.r(A)p.r(C)p.r(G)p.r(A)p.r(A)p.r(G)p.r(C)p.[fl2r](U)p.r(A)p.[fl2r](U)p.r(G)p.r(A)p.r(A)p.r(T)p.r(T)}|RNA2{r(U)p.r(U)p.[fl2r](C)p.r(A)p.[fl2r](U)p.r(A)p.r(G)p.r(C)p.r(U)p.r(U)p.r(C)p.r(G)p.r(U)p.r(C)p.r(U)p.r(U)p.r(C)p.r(G)p.r(G)p.r(T)p.r(T)}$$$RNA1{StrandType:ss}|RNA2{StrandType:as}$”, the target mRNA knockdown was 46%.
Consider “RNA1{r(C)p.r(C)p.r(G)p.r(A)p.r(A)p.r(G)p.r(A)p.r(C)p.r(G)p.r(A)p.r(A)p.r(G)p.r(C)p.m(U)p.r(A)p.r(U)p.r(G)p.r(A)p.r(A)p.r(T)p.r(T)}|RNA2{r(U)p.r(U)p.m(C)p.r(A)p.r(U)p.r(A)p.r(G)p.r(C)p.r(U)p.r(U)p.r(C)p.r(G)p.r(U)p.r(C)p.r(U)p.r(U)p.r(C)p.r(G)p.r(G)p.r(T)p.r(T)}$$$RNA1{StrandType:ss}|RNA2{StrandType:as}$”, for which the target mRNA knockdown was 71%.
As for “RNA1{r(C)p.r(C)p.r(G)p.r(A)p.r(A)p.r(G)p.r(A)p.r(C)p.r(G)p.r(A)p.r(A)p.r(G)p.r(C)p.r(U)p.r(A)p.r(U)p.r(G)p.r(A)p.r(A)p.r(T)p.r(T)}|RNA2{r(U)p.r(U)p.r(C)p.r(A)p.[fl2r](U)p.r(A)p.r(G)p.r(C)p.r(U)p.r(U)p.r(C)p.r(G)p.r(U)p.r(C)p.r(U)p.r(U)p.r(C)p.r(G)p.r(G)p.r(T)p.r(T)}$$$RNA1{StrandType:ss}|RNA2{StrandType:as}$”, the figure is 47%; as for “RNA1{r(C)p.r(C)p.r(G)p.r(A)p.r(G)p.r(A)p.r(G)p.m(C)p.r(U)p.r(C)p.m(U)p.r(C)p.r(C)p.m(U)p.r(A)p.r(C)p.r(C)p.r(U)p.r(U)p.r(T)p.r(T)}|RNA2{r(A)p.r(A)p.r(G)p.r(G)p.m(U)p.r(A)p.r(G)p.r(G)p.r(A)p.r(G)p.r(A)p.r(G)p.r(C)p.r(U)p.r(C)p.r(U)p.r(C)p.r(G)p.r(G)p.r(T)p.r(T)}$$$RNA1{StrandType:ss}|RNA2{StrandType:as}$”, 72%; as for “RNA1{r(C)p.r(C)p.r(G)p.r(A)p.r(G)p.r(A)p.r(G)p.r(C)p.r(U)p.r(C)p.r(U)p.r(C)p.r(C)p.m(U)p.r(A)p.r(C)p.r(C)p.r(U)p.r(U)p.r(T)p.r(T)}|RNA2{r(A)p.r(A)p.r(G)p.r(G)p.m(U)p.r(A)p.r(G)p.r(G)p.r(A)p.r(G)p.r(A)p.r(G)p.r(C)p.r(U)p.r(C)p.r(U)p.r(C)p.r(G)p.r(G)p.r(T)p.r(T)}$$$RNA1{StrandType:ss}|RNA2{StrandType:as}$”, 75%.
“RNA1{r(C)p.r(C)p.r(G)p.r(C)p.r(C)p.r(C)p.r(G)p.r(G)p.r(C)p.r(G)p.r(G)p.r(C)p.m(G)p.r(C)p.r(C)p.r(U)p.r(U)p.m(U)p.m(A)p.r(T)p.r(T)}|RNA2{m(U)p.m(A)p.r(A)p.r(A)p.r(G)p.r(G)p.r(C)p.r(G)p.r(C)p.r(C)p.r(G)p.r(C)p.r(C)p.r(G)p.r(G)p.r(G)p.r(C)p.r(G)p.r(G)p.r(T)p.r(T)}$$$RNA1{StrandType:ss}|RNA2{StrandType:as}$” returned a target mRNA knockdown of 85%.
The result for “RNA1{r(C)p.r(C)p.r(G)p.r(C)p.r(C)p.r(C)p.r(G)p.r(G)p.r(C)p.r(G)p.r(G)p.r(C)p.r(G)p.r(C)p.r(C)p.r(U)p.r(U)p.r(U)p.m(A)p.r(T)p.r(T)}|RNA2{m(U)p.m(A)p.r(A)p.r(A)p.r(G)p.r(G)p.r(C)p.r(G)p.r(C)p.r(C)p.r(G)p.r(C)p.r(C)p.r(G)p.r(G)p.r(G)p.r(C)p.r(G)p.r(G)p.r(T)p.r(T)}$$$RNA1{StrandType:ss}|RNA2{StrandType:as}$” reads 82%; that for “RNA1{r(C)p.r(C)p.r(U)p.r(C)p.r(C)p.r(C)p.m(C)p.r(A)p.r(U)p.r(C)p.r(C)p.r(C)p.r(C)p.r(U)p.r(U)p.r(U)p.m(U)p.r(A)p.r(A)p.r(T)p.r(T)}|RNA2{r(U)p.r(U)p.m(A)p.r(A)p.r(A)p.r(A)p.r(G)p.r(G)p.r(G)p.r(G)p.r(A)p.m(U)p.r(G)p.r(G)p.r(G)p.r(G)p.r(A)p.r(G)p.r(G)p.r(T)p.r(T)}$$$RNA1{StrandType:ss}|RNA2{StrandType:as}$”, 80%.
